Source: ChEMBL document CHEMBL1126392, “Semisynthesis and biological activity of taxol analogues: baccatin III 13-(N-benzoyl-(2R,3S)-3-(p-tolyl)isoserinate), baccatin III 13-(N-(p-toluoyl)-2R,3S)-3-phenylisoserinate), baccatin III 13-(N-benzoyl-(2R,3S)-3-(p-trifluoromethylphenyl)isoserinate), and baccatin III …” (1992)
Activity calls are given as the source filed them. No cut-off for these calls is given here.

Tests used:
[1] = molecular target: Tubulin alpha chain (Sus scrofa) (UniProt P02550); experiment: (§1) Concentration which causes polymerization of 50 % of the tubulin present, in 15 min at 37 C, as a ratio in comparison wth taxol (taxol ED50 = 0.7 to 0.8 uM); assay type: functional
B16 [2] = experiment: Compound was evaluated for the cytotoxicity against B16 melanoma cells after 40h incubation expressed as ratio relative to that of taxol; assay type: functional, Mus musculus
[3] = as §1; assay type: functional
B16 [4] = experiment: Compound was evaluated for the cytotoxicity against B16 melanoma cells after 40h incubation expressed as ratio relative to that of taxol; NA - No cytotoxicity; assay type: functional, cell-based; conditions: Mus musculus

Tubulin alpha chain (Sus scrofa), sequence (P02550 whole entry, looked up): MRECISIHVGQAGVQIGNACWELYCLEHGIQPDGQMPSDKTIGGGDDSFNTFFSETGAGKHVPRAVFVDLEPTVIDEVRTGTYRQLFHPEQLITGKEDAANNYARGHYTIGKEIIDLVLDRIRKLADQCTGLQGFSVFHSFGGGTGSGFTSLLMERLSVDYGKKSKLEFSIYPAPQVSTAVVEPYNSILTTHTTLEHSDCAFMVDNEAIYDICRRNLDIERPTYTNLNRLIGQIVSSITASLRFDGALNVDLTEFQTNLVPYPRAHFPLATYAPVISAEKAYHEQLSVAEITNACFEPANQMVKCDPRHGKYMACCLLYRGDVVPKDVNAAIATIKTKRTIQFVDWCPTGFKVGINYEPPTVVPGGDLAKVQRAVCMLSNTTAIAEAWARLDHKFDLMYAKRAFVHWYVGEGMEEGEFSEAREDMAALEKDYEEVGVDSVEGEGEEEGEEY

Row | SMILES | Ratio [1] | ED50 / ED50 (taxol) (B16 [2]) | Ratio [3] | ED50 / ED50 (taxol) (B16 [4])
1 | CC(=O)O[C@H]1C(=O)[C@@]2(C)[C@H]([C@H](OC(=O)c3ccccc3)[C@]3(O)C[C@H](OC(=O)[C@H](O)[C@@H](NC(=O)c4ccc(C)cc4)c4ccccc4)C(C)=C1C3(C)C)[C@]1(OC(C)=O)CO[C@@H]1C[C@@H]2O | 1.6 | 1.4 | – | –
2 | CC(=O)O[C@H]1C(=O)[C@@]2(C)[C@H]([C@H](OC(=O)c3ccccc3)[C@]3(O)C[C@H](OC(=O)[C@H](O)[C@@H](NC(=O)c4ccccc4)c4ccccc4)C(C)=C1C3(C)C)[C@]1(OC(C)=O)CO[C@@H]1C[C@@H]2O | – | – | 0.7 | –
3 | CC(=O)O[C@H]1C(=O)[C@@]2(C)[C@H]([C@H](OC(=O)c3ccccc3)[C@]3(O)C[C@H](OC(=O)[C@H](O)[C@@H](NC(=O)c4ccc(C(F)(F)F)cc4)c4ccccc4)C(C)=C1C3(C)C)[C@]1(OC(C)=O)CO[C@@H]1C[C@@H]2O | 6 | 17.7 | – | –
4 | CC(=O)O[C@H]1C(=O)[C@@]2(C)[C@H]([C@H](OC(=O)c3ccccc3)[C@]3(O)C[C@H](OC(=O)[C@H](O)[C@@H](NC(=O)c4ccccc4)c4ccc(C)cc4)C(C)=C1C3(C)C)[C@]1(OC(C)=O)CO[C@@H]1C[C@@H]2O | 2.4 | 3 | – | –
5 | CC(=O)O[C@H]1C(=O)[C@@]2(C)[C@H]([C@H](OC(=O)c3ccccc3)[C@]3(O)C[C@H](OC(=O)[C@H](O)[C@@H](NC(=O)c4ccccc4)c4ccc(C(F)(F)F)cc4)C(C)=C1C3(C)C)[C@]1(OC(C)=O)CO[C@@H]1C[C@@H]2O | inactive | – | – | inactive
